Source: patent US9221873B1, “Short-chain peptide capable of controlling spermatozoa fertilization performance” (NATIONAL TAIWAN UNIVERSITY, priority 2014, dated 2015)

Assays:
mouse spermatozoa = assay: Measuring the [Ca2+]i in spermatozoa (Fluo-4 AM fluorescence); type: cell-based; conditions: FIG. 1; for [Ca2+]i increases by (change in fluorescent intensity, (F'-F0)/F0): plateau phase 27-30 minutes
Procedure: Spermatozoa are prepared for measuring changes in the intracellular concentration of free calcium ions ([Ca^2]i). Modified HEPES medium (120 mM of NaCl, 2 mM of KCl, 1.2 mM of MgSO4.7H2O, 0.36 mM of NaH2PO4, 15 mM of NaHCO3, 10 mM of HEPES, 5.6 mM of glucose, 1.1 mM of sodium pyruvate, 18.5 mM of sucrose, 100 IU/ml of penicillin, and 100 μg/ml of streptomycin), spermatozoa culture medium, is pre-incubated in incubator with 5% CO2 at 37° C. for 24 hours before using to adjust the medium pH ranges between 7.3 and 7.4. The cauda epididymis is cut into several pieces, incubated in the medium at 37° C. for 20 minutes, put on 1 ml of 75% (v/v) Percoll solution, and centrifuged at 300×g for 30 minutes to isolate higher motility spermatozoa for [Ca^2+]i measurement experiment.
Changes in the [Ca^2+]i in uncapacitated spermatozoa are measured. Spermatozoa (1×10^8 cells per milliliter) is incubated in modified HEPES medium, containing 15 μM of Fluo-4 AM, in the darkness at 37° C. for 45 minutes. Fluo-4 AM is a fluorescent Ca^2+ indicator capable of penetrating cell membranes. Then, the spermatozoa are washed thrice by 100×g centrifugation at room temperature for 5 minutes to remove the residual dye. The sperm cell pellet is suspended in a modified HEPES medium, containing 1.8 mM of CaCl2, and the cell concentration is adjusted to 5×10^6 cells per milliliter. […] The changes of fluorescent intensity are measured with the Synergy H1 Hybrid Multi-Mode Microplate Reader (Bio-Tek, Winooski, Vt., USA) at 37° C. via an excitation wavelength of 485 nm and an emission wavelength of 520 nm. […] Changes in [Ca^2+]i are calculated with the equation (F′−F0)/F0 (%), wherein F′ denotes the fluorescent intensity measured at different time points during the experiment, and F0 denotes the average of fluorescent intensity measured 0 to 5 minutes before adding kisspeptin-10. Last but not least, the average change in the fluorescent intensity during the plateau phase (27˜30 minutes) of [Ca^2+]i is calculated.

spermatozoa = assay: IVF test (in vitro fertilization, success fertilization rate); type: cell-based, mouse; conditions: spermatozoa incubated with 50 μM during capacitation, 2 hours, 37° C.; control group larger than 80%; binds KISS1R; FIG. 2
Procedure: In the in vitro fertilization experiment, spermatozoa isolated from cauda epididymis are incubated in HTF (human tubal fluid) medium (Merck Millipore) at 37° C. for 20 minutes and then diluted the cell concentration to 1×10^6 spermatozoa per milliliter.
The uncapacitated spermatozoa is incubated in HTF medium and then treated with peptide 234 during capacitation step, such that kisspeptin signal effects on final fertilization step is evaluated. The 0.9% saline is added to the control group to substitute for the peptide 234 solution. In detail, spermatozoa (1×10^6 cell per milliliter) are incubated in a capacitation-condition medium with 50 μM peptide 234 or saline at 37° C. for 2 hours. Then, the fertilization process begins with the introduction of cumulus-oocyte complexes (COCs) into the culture medium and incubation at 37° C. for 6 hours. The oocytes are washed thrice and incubated in KSOM+AAs culture medium (potassium simplex optimized medium plus amino acids, Merk Millipore) for 24 hours. The success fertilization rate is calculated according to the ratio of the number of two-cell embryos to the total number of oocytes. […]

| Substance | [Ca2+]i increases by (change in fluorescent intensity, (F'-F0)/F0) (mouse spermatozoa; mouse spermatozoa treated with 50 μM) [%] | [Ca2+]i increases by (change in fluorescent intensity, (F'-F0)/F0) (mouse spermatozoa; mouse spermatozoa treated with 100 μM) [%] | [Ca2+]i change (fluorescent intensity), in words (mouse spermatozoa; mouse spermatozoa treated with 25, 50 and 100 μM) | success fertilization rate (two-cell embryos / total oocytes) (spermatozoa) |
| --- | --- | --- | --- | --- |
| kisspeptin 10: short-chain peptide kisspeptin-10 (SEQ ID NO:6), rodent expressed kisspeptin, purchased from Kelowna international Scientific (YNWNSFGLRY; Rodent expressed kisspeptin-10) | 85.5±14.4 | 129.9±24.9 | increases |  |
| peptide 234: kisspeptin antagonist peptide 234 (SEQ ID NO:10), binds to KISS1R on the spermatozoa (ANWNGFGWRF; Kisspeptin antagonist peptide 234) |  |  |  | less than 60% |
